Results: publication PMC11208997 (RSC Advances, 2024)

What was measured:
[1] = tested on: colon cancer (HT-29); test: Antiproliferative assay, HT-29; type: cell-based; details: Homo sapiens, HT-29, read-out: Antiproliferative activity IC50 ± SEM, HT-29
[2] = tested on: lung cancer (A-549) cell line; test: Antiproliferative assay, A-549; type: cell-based; details: Homo sapiens, A549, read-out: Antiproliferative activity IC50 ± SEM, A-549
[3] = Cell viability assay; type: cell-based; details: human, MCF-10A mammary gland epithelial normal cells
[4] = tested on: breast cancer (MCF-7) cell line; test: Antiproliferative assay, MCF-7; type: cell-based; details: Homo sapiens, MCF7, read-out: Antiproliferative activity IC50 ± SEM, MCF-7
[5] = tested on: four human cancer cell lines (A-549, MCF-7, Panc-1, HT-29); test: Antiproliferative assay, average over four cancer cell lines; type: cell-based; details: for Fold lower antiproliferative potency (GI50) than 9c: GI50 relative to 9c; for GI50: Homo sapiens, read-out: Antiproliferative activity, Average (GI50)
[6] = tested on: pancreatic cancer (Panc-1) cell line; test: Antiproliferative assay, Panc-1; type: cell-based; details: Homo sapiens, PANC-1, read-out: Antiproliferative activity IC50 ± SEM, Panc-1
[7] = target: EGFR (Homo sapiens, UniProt P00533); test: EGFR-TK inhibitory assay; type: biochemical
[8] = tested on: BRAF^V600E; test: Western blotting, BRAF^V600E level in A549 cells; type: cell-based, human; details: untreated control OD 0.507
[9] = tested on: VEGFR-2; test: Western blotting, VEGFR-2 level in A549 cells; type: cell-based, human; details: untreated control OD 0.662
[10] = target: VEGFR-2 (Homo sapiens, UniProt P35968); test: VEGFR-2 inhibitory assay; type: biochemical
[11] = tested on: EGFR; test: Western blotting, EGFR level in A549 cells; type: cell-based, human; details: untreated control OD 0.695
[12] = target: BRAF^V600E (Mus musculus, UniProt P28028, V585E); test: BRAF^V600E inhibitory assay; type: biochemical
Chain of BRAF^V600E (Mus musculus, UniProt P28028, V585E) (P28028 whole entry V585E): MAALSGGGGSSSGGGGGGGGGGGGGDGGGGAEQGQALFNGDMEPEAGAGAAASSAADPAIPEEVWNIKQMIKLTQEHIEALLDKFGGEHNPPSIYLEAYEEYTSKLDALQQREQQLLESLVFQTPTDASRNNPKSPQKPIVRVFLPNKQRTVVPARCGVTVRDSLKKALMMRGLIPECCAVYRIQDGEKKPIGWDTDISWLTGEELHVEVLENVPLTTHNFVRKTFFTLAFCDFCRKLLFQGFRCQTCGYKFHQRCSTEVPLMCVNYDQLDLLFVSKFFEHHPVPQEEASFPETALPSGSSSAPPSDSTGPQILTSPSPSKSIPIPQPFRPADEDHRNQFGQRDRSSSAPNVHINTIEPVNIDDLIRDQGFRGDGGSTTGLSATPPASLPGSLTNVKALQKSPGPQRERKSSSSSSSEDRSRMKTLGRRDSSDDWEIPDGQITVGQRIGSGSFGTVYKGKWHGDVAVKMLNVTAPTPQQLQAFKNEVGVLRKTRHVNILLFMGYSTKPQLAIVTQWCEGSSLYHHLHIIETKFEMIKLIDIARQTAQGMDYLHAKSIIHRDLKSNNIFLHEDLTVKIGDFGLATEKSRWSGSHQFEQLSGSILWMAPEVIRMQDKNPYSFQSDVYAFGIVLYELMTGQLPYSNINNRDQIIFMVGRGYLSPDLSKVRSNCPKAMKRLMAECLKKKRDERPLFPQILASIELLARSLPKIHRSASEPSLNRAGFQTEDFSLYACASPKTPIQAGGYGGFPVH

Chain of EGFR (Homo sapiens, UniProt P00533) (P00533 669-1210): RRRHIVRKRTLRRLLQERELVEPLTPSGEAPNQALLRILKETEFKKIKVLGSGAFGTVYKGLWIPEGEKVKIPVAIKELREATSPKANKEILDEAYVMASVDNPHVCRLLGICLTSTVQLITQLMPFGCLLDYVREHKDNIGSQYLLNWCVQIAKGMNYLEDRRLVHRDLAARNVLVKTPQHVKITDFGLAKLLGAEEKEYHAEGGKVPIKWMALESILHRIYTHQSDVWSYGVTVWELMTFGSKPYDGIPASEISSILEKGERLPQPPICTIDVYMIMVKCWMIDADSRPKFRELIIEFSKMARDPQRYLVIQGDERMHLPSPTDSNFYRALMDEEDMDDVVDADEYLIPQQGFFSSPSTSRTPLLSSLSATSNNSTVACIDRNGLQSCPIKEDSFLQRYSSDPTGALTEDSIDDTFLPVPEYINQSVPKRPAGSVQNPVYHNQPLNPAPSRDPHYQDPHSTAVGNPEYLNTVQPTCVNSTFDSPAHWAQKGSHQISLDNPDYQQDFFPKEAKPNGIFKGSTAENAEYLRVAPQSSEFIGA
Chain of VEGFR-2 (Homo sapiens, UniProt P35968) (P35968 20-1356): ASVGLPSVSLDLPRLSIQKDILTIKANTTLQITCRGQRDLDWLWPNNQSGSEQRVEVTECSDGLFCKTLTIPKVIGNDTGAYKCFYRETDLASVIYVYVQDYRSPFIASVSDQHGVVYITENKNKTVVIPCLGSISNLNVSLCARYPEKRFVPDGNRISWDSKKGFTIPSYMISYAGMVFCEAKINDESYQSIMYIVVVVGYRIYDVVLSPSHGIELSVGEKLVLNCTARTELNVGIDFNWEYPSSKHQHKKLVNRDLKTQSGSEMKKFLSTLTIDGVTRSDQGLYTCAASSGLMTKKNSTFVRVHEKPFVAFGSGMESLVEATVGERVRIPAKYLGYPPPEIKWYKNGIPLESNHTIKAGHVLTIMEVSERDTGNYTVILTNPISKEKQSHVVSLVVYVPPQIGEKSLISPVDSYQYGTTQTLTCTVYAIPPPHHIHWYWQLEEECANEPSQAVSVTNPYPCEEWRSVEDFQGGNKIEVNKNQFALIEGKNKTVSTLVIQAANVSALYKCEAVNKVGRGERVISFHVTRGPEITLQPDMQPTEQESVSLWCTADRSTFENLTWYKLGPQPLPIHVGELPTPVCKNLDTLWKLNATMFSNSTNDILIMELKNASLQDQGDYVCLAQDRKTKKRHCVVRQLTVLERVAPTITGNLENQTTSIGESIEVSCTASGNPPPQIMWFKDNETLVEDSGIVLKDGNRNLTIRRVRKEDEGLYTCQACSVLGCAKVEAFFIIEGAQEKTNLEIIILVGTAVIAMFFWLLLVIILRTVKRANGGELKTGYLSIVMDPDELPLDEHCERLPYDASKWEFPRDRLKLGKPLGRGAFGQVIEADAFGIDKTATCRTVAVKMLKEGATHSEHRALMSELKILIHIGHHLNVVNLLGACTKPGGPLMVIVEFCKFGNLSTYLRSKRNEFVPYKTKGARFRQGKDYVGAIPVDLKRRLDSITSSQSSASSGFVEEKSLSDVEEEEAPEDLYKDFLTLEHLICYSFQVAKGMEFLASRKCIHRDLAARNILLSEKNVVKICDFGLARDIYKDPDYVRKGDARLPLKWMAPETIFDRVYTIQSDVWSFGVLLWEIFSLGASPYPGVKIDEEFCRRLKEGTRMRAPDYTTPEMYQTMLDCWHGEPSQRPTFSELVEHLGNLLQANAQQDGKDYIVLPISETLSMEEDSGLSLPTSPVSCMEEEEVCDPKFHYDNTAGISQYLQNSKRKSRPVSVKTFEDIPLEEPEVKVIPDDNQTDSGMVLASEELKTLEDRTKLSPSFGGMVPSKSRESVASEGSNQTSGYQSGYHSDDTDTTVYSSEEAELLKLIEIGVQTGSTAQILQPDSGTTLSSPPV

IC50 [1] [nM]	IC50 [2] [nM]	IC50 [4] [nM]	Fold lower antiproliferative potency (GI50) than 9c [5] [fold]	GI50 [5] [nM]	IC50 [6] [nM]	IC50 [7] [nM]	IC50 [10] [nM]	IC50 [12] [nM]	Compound	viability at 96 h, 50 µM [3] [%]	Western blotting OD, BRAF^V600E [8]	Western blotting OD, VEGFR-2 [9]	Western blotting OD, EGFR [11]
58 ± 5	56 ± 5	52 ± 5	1.5	56	58 ± 5	–	–	–	Br.C=CC/N=C1/NN=C(c2ccccc2)CS1 [Compound 9b, (Z)-N-(5-Phenyl-3,6-dihydro-2H-1,3,4-thiadiazin-2-ylidene)prop-2-en-1-aminium bromide]	90	–	–	–
30 ± 3	30 ± 3	40 ± 3	–	–	30 ± 3	–	–	–	C#Cc1cccc(Nc2ncnc3cc(OCCOC)c(OCCOC)cc23)c1 [Erlotinib, reference compound]	–	–	–	–
56 ± 5	54 ± 5	51 ± 5	–	54	56 ± 5	–	–	–	Brc1ccc(C2=NN/C(=N/C3CCCCC3)SC2)cc1 [Compound 9g, (Z)-N-(5-(4-Bromophenyl)-3,6-dihydro-2H-1,3,4-thiadiazin-2-ylidene) cyclohexanaminium bromide]	88	–	–	–
64 ± 6	62 ± 6	58 ± 5	–	62	64 ± 6	–	–	–	C/N=C1/NN=C(c2ccc(Br)cc2)CS1 [Compound 9e, (Z)-N-(5-(4-Bromophenyl)-3,6-dihydro-2H-1,3,4-thiadiazin-2-ylidene) methanaminium bromide]	92	–	–	–
40 ± 4	37 ± 3	35 ± 3	–	38	38 ± 3	86 ± 5	2.2 ± 0.02	74 ± 5	Br.c1ccc(C2=NN/C(=N/C3CCCCC3)SC2)cc1 [Compound 9c, (Z)-N-(5-Phenyl-3,6-dihydro-2H-1,3,4-thiadiazin-2-ylidene) cyclohexanaminium bromide]	92	0.219	0.346	0.288
47 ± 4	48 ± 4	44 ± 4	–	47	48 ± 4	96 ± 7	3.25 ± 0.03	88 ± 6	Brc1ccc(C2=NN=C(Nc3ccccc3)SC2)cc1 [Compound 9d, 5-(4-Bromophenyl)-2-(phenylamino)-6H-1,3,4-thiadiazin-3-ium bromide]	89	–	–	–
66 ± 6	65 ± 6	64 ± 6	–	66	66 ± 6	–	–	–	CC/N=C1/NN=C(c2ccc(Br)cc2)CS1 [Compound 9f, (Z)-N-(5-(4-Bromophenyl)-3,6-dihydro-2H-1,3,4-thiadiazin-2-ylidene)ethan aminium bromide]	89	–	–	–
44 ± 4	43 ± 4	40 ± 4	1.2	43	44 ± 4	92 ± 7	2.8 ± 0.02	83 ± 6	Br.c1ccc(NC2=NN=C(c3ccccc3)CS2)cc1 [Compound 9a, 5-Phenyl-2-(phenylamino)-6H-1,3,4-thiadiazin-3-ium bromide]	91	–	–	–
